The record followed here is PMC10484922, “Discovery of a selective and biologically active low-molecular weight antagonist of human interleukin-1β” (Nature Communications, 2023).

The target of test [1] is T1, IL-1α (Homo sapiens, UniProt P01583).
T1 sequence (P01583 113-271): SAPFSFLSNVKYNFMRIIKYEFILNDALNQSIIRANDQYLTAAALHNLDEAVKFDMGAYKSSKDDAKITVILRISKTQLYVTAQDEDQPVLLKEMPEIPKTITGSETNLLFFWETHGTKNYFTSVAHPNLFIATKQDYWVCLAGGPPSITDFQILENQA
In words: TR-FRET IL-1α/hIL-1R1 receptor displacement assay. It is filed as biochemical. The following applies: read-out: TR-FRET IL-1α IC50. How it is done:
After 1 h incubation at room temperature, hIL-1R1 (1–332; Alexa 647 labeled; 50 nM final concentration) and anti-His-Europium W1024 (Perkin Elmer; Cat.No. AD0401, 1 nM final concentration) were added to a final volume of 10 μl per well. After 1 h of incubation at room temperature, time-resolved fluorescence was measured at λexc = 320 ± 20 nm, λem = 620 ± 25 nm/665 ± 25 nm using a Pherastar FSX plate reader. All experiments were run in triplicates. The data provided a typical saturation-binding curve, and the IC50 values were calculated by fitting the results to the Hill equation using Prism 7.0 and the in-house software Helios.
A general note: Time-resolved FRET reads energy transfer from a long-lived donor to a nearby acceptor.

Test [2] has as its system normal human dermal fibroblasts stimulated with hIL-1β. As to the kind of experiment: Human fibroblast IL-6 release assay, hIL-1β stimulated. It is filed as cell-based. On the set-up: IL-6, average / inhibition, replicates of EXP1, EXP2, EXP3 / inhibition, Mean / IL-1beta (mean, SD): mean readout (IL-6 release): unit not given here. The following applies: for IL-6, average / IL-6, curve fit: per experiment; for % Inhibition (EXP1-EXP3, single experiments) / % Inhibition, Mean: Figure 3b; for % Inhibition, Mean: mean of 3 experiments; for Mean OD (OD 450nm) / IL-1beta (mean, SD): mean readout (IL-6 release): Figure 3c; for Mean OD (OD 450nm): compound 1 nM; for IL-1beta (mean, SD): mean readout (IL-6 release): compound @ 1nM. Here is the method:
(§1) We used HEK-Blue™ IL-1β cells that respond specifically to IL-1 (# hkb-il1b, InvivoGen). These cells can detect IL-1α and IL-1β, as these cytokines bind to the same receptor, IL-1R1. They express a Seap reporter gene under the control of the IFN-β minimal promoter fused to five NF-kappaB and five AP-1 binding sites. Thirty microliters (300,000 cells/ml) per well of a 384-well plate were plated overnight. Cells were then stimulated with graded concentrations of cytokines (hIL-1α or hIL-1β) in the absence or presence of canakinumab (Ilaris®, ILARI LYVI 150MG 22GLW.012, batch U003 0409)[22], anakinra (Kineret®, 100 mg/0.67 ml injectable solution, Sobi)[23], or compound (S)-2 (compounds were pre-mixed for 1 h with the cytokine prior to addition to cells) and further incubated overnight before assessment of Seap activity.
(§2) Normal human dermal fibroblasts (NHDF) from Clonetics^TM (LONZA, Cat # CC-2509 (NHDF-Neo), Lot # 0000234242, used at passage ≤14) were seeded at a density of 5000 cells/well in 100 μL of culture medium using 96-well plates (flat bottom, TCT). Treatment with cytokines/compounds was performed as described above. Cells were incubated for another 6 h and were subsequently spun down (320g/3 min). IL-6 was measured in the supernatant by ELISA (BioLegend, # 430503) or HTRF (Cisbio, #62HIL06PEH).

Test [3] deals with IL-1β (Homo sapiens, UniProt P01584). As to the kind of experiment: 19F-reporter displacement assay with (S)-1 as probe. It is filed as binding. Details: Mature hIL-1β was expressed in Escherichia coli; made in house; host or cells: Escherichia coli BL21 (DE3), pET17b. How it is done: Protein and reporter concentrations were 10 and 40 μM, respectively. To account for changes in sample homogeneity, samples contained 1-(2,2,2-trifluoroacetyl)piperidine-4-carboxylic acid as an internal reference for scaling signal intensities. Three concentrations of the competitor were typically measured, and the related displacement of the probe was converted into Ki-values according to Dalvit and Vulpetti[17]. […] This process was automated with FRPipe, an in-house developed Python script (https://github.com/Novartis/FRPipe) that allows for streamlined analysis of such experiments. […] For visual inspection, an overview containing relevant ^19F peaks, fitting curves, and proton spectra was plotted.
Supplementary Figure 2. 13C-NMR and 19F-NMR reporter assays to monitor early structure activity relationships of analogues of 1. a, b Early structure activity relationships monitored by protein-observed and c-f 19F-NMR reporter assays, exemplified for compound 8. a 1H-13C-HMQC spectra of hIL-1b (50 µM) were acquired in the presence (red) and absence (blue) of 500 µM compound and rows were extracted at the w1-frequency of the peak corresponding to Leu60 Cd1H3. b The degree of protein binding was estimated from the ratio I/I0, where I and I0 correspond to the signal in the presence and absence of compound, respectively. c For the assessment of the KI-values, the signal intensity of a reporter molecule (S)-1 was monitored in 19F-transverse relaxation experiments run in the absence and presence of increasing amounts of compound. d All intensities were scaled to the intensity of an internal standard (all signals in panel c and d are shifted on the X-axis for clarity). e KI-values were retrieved from theoretical binding curves calculated for each compound concentration8. f One-dimensional 1H-NMR spectra were recorded for each assay mixture to assess the structural integrity and solubility of the compound in the sample.
(1 picture or pasted object on this page, not shown here)

The subject of test [4] is normal human dermal fibroblasts stimulated with hIL-1α. As to the kind of experiment: Human fibroblast IL-6 release assay, hIL-1α stimulated. In kind it is cell-based. On the set-up: IL-1alpha (mean, SD): mean readout (IL-6 release): unit not given here. The following applies: Figure 3c; for Mean OD (OD 450nm): compound 1 nM; for IL-1alpha (mean, SD): mean readout (IL-6 release): compound @ 1nM. How it is done: as §1, §2

Where [5] appears, read: Homo sapiens, Fibroblast, 6 h, human dermal fibroblasts, hIL-1β, 6 h, read-out: IL-6 release IC50.
Setting [6] is: Homo sapiens, Fibroblast, source data, read-out: IL-6 IC50, individual experiments.
[7] abbreviates: 19F-reporter Ki, protein 10 μM, reporter (S)-1 40 μM.
Setting [8] is: 19F-reporter, individual experiments (Exp1-58), source data.
Where [9] appears, read: Canakinumab concentration 0.00457247 (unit not given).
The mark [10] stands for this setting: Canakinumab concentration 0.0137174 (unit not given).
Where [11] appears, read: Canakinumab concentration 0.0411523 (unit not given).
The mark [12] stands for this setting: Canakinumab concentration 0.123457 (unit not given).
[13] abbreviates: Canakinumab concentration 0.37 (unit not given).
Setting [14] is: Canakinumab concentration 1.11 (unit not given).
[15] abbreviates: Canakinumab concentration 3.33 (unit not given).

Several values for one entry are separate records, joined by “and”; a condition that tells them apart may be missing. Equal values may be shown once. Entries after “also recorded” stand apart in the source; their conditions may differ. Read-outs that look alike come from different tables or passages of the source.

Chain of IL-1β (P01584 117-269): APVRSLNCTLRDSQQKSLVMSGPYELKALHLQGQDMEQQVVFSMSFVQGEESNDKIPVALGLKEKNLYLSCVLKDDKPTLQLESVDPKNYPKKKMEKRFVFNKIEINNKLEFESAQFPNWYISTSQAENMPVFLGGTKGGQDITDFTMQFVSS

A word on the IC50: it is the point on the concentration scale where inhibition reaches its midpoint. As usually defined, the Ki is a measure of affinity in units of concentration, obtained from inhibition or displacement. `Cc1ccc2c(c1)NC(=O)C2(O)c1cc(-c2ccc(C(=O)O)cc2)ccc1O` (centres unmarked) [Compound 10]: the IC50 is above 200 µM in test [1], 117 µM in test [2] (setting [5]) and 117 µM in test [2] (setting [6]). Besides, the “IL-6, average” value in test [2] (0.3 uM) stood at 4.183; in test [2] (1.2 uM), 7.793; in test [2] (3 uM) it was 7.203; in test [2] (12 uM), 4.254; in test [2] (33 uM (Cpd 10/11 series)) it was 6.569; in test [2] (99 uM) it was 29.3257. Moreover, the “IL-6, average” value in test [2] (300 uM) is 100.311. The “IL-6, curve fit” value in test [2] (0.3 uM) is listed as 2.28E-12; in test [2] (1.2 uM), 3.34E-09; in test [2] (3 uM) it was 4.25E-07; in test [2] (12 uM) it was 0.0006137; in test [2] (33 uM (Cpd 10/11 series)) it was 0.1292; in test [2] (99 uM), 29.6479. Further, the “IL-6, curve fit” value in test [2] (300 uM) is reported as 99.3118. Moreover, the Ki is 75 ± 40 µM in test [3] (setting [7]); 103 µM and 47 µM in test [3] (setting [8]).

For `O=C(O)c1ccccc1-c1ccc(O)c(C2(O)C(=O)Nc3cc(Cl)ccc32)c1` (centres unmarked) [Compound 11], the IC50 is above 200 µM in test [1]; 112 ± 1 µM in test [2] (setting [5]); 111 µM in test [2] (setting [6]); 113 µM in test [2] (source data, read-out: IL-6 IC50, individual experiments). The “IL-6, average” value in test [2] (99 uM) was 38.1953 and 26.9144; in test [2] (300 uM), 100.608 and 103.181. Moreover, the “IL-6, curve fit” value was 38.6393 and 27.5847 in test [2] (99 uM); 97.9064 and 99.9483 in test [2] (300 uM). Further, the Ki in test [3] (setting [7]) was 63 ± 41 µM; in test [3] (setting [8]), 92 µM and 34 µM.

As to “canakinumab: anti-hIL-1β antibody [reference compound]”, the “Mean OD (OD 450nm)” value worked out at 0.041 in test [4] (hu IL-1A 0 pg/mL); 0.388 in test [4] (hu IL-1A 40 pg/mL); 0.589 in test [4] (hu IL-1A 80 pg/mL); 0.693 in test [4] (hu IL-1A 120 pg/mL); 0.774 in test [4] (hu IL-1A 160 pg/mL); 0.785 in test [4] (hu IL-1A 200 pg/mL). Further, the “Mean OD (OD 450nm)” value in test [2] (hu IL-1b 0 pg/mL) is on record as 0.033; in test [2] (hu IL-1b 40 pg/mL), 0.046; in test [2] (hu IL-1b 80 pg/mL) it was 0.099; in test [2] (hu IL-1b 120 pg/mL), 0.15; in test [2] (hu IL-1b 160 pg/mL), 0.229; in test [2] (hu IL-1b 200 pg/mL), 0.252. For the same molecule, the “IL-1alpha (mean, SD): mean readout (IL-6 release)” value in test [4] (hu IL-1a 0 pg/mL) is given as 0; in test [4] (hu IL-1a 40 pg/mL), 2114.2; in test [4] (hu IL-1a 80 pg/mL), 3604.7; in test [4] (hu IL-1a 120 pg/mL), 4369.8; in test [4] (hu IL-1a 160 pg/mL), 4969.2; in test [4] (hu IL-1a 200 pg/mL) it was 5051.1. In addition, in test [2], the “block of hIL-1β driven IL-6 release” value is recorded as “fully blocked; also recorded: selectively inhibited IL-1β driven activity”. The “% Inhibition (EXP1-EXP3, single experiments)” value in test [2] (setting [9]) is 15.5% and 11.1% and 14.6%; in test [2] (setting [10]) it was 23.7% and 27.7% and 26.5%; in test [2] (setting [11]), 29% and 29.6% and 31.5%; in test [2] (setting [12]) it was 46.1% and 41.8% and 58.9%; in test [2] (setting [13]) it was 71.6% and 66.1% and 70.6%; in test [2] (setting [14]), 91.2% and 93.8% and 92.3%. In addition, the “% Inhibition (EXP1-EXP3, single experiments)” value in test [2] (setting [15]) is 99.3% and 99.2% and 98.7%. Also, the “% Inhibition, Mean” value in test [2] (setting [9]) came out at 13.7%; in test [2] (setting [10]), 26%; in test [2] (setting [11]), 30%; in test [2] (setting [12]), 48.9%; in test [2] (setting [13]) it was 69.4%; in test [2] (setting [14]), 92.4%. In test [2] (setting [15]), the “% Inhibition, Mean” value came to 99%. In addition, the “IL-1beta (mean, SD): mean readout (IL-6 release)” value in test [2] (hu IL-1b 0 pg/mL) was found to be 0; in test [2] (hu IL-1b 40 pg/mL), 0; in test [2] (hu IL-1b 80 pg/mL) it was 0; in test [2] (hu IL-1b 120 pg/mL), 353.7; in test [2] (hu IL-1b 160 pg/mL), 936.8; in test [2] (hu IL-1b 200 pg/mL), 1110.8.
